Experimental data: patent publication US10670605B2, “Cysteine reactive probes and uses thereof” (The Scripps Research Institute, priority 2015, dated 2020)

Experiments:
Experiment in all cases: Competitive isoTOP-ABPP in situ (fragment-treated cells)
Format in all cases: cell-based
[1] = molecular target: T1, cysteines in MDA-MB-231 and Ramos cells (Homo sapiens, UniProt P78417)
T1 sequence (P78417 1-241): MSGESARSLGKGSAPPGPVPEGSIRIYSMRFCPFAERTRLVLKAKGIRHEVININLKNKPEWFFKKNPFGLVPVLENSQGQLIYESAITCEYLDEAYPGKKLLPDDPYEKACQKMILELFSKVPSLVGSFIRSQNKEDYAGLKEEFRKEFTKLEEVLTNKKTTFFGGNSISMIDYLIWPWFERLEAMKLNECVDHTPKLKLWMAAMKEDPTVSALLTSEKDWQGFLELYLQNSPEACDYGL

[2] = molecular target: T2, cysteines in MDA-MB-231 and Ramos cells (Homo sapiens, UniProt Q13155)
T2 sequence (Q13155 1-320): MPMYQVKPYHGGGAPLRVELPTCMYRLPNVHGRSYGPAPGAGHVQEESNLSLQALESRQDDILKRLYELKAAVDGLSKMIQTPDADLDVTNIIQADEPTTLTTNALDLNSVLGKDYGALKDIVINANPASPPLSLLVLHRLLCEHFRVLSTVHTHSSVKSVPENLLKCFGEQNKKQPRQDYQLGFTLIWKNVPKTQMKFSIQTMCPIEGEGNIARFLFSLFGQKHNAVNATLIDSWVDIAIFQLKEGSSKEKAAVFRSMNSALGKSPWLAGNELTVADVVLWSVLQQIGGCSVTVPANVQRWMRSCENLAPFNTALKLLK

[3] = molecular target: T3, cysteines in MDA-MB-231 and Ramos cells (Homo sapiens, UniProt Q96T76)
T3 sequence (Q96T76 1-1030): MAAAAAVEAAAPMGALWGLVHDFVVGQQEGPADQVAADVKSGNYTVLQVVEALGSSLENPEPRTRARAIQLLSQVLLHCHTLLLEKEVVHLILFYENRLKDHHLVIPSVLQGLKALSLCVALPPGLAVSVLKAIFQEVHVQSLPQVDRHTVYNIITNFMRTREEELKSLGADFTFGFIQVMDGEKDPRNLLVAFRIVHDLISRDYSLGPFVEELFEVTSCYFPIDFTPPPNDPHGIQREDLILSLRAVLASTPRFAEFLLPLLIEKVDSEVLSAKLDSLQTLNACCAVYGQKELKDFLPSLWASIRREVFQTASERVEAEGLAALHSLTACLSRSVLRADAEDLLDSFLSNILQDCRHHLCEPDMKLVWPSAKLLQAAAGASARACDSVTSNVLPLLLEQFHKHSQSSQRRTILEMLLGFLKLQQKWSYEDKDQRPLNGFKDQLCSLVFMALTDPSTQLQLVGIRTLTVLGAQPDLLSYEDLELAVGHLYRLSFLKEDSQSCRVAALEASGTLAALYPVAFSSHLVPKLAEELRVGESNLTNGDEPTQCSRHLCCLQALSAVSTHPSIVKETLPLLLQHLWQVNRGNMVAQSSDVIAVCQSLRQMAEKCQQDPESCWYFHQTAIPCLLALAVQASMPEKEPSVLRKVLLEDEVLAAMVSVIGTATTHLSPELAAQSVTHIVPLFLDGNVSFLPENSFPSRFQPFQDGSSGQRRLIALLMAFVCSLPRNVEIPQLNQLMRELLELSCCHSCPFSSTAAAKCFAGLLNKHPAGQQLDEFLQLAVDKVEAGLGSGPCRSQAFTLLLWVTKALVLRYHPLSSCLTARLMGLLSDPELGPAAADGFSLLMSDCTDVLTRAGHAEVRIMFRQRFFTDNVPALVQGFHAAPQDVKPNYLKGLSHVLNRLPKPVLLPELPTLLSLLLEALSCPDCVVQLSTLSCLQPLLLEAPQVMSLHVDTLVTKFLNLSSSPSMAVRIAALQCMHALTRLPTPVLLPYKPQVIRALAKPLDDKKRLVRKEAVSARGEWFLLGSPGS

[4] = molecular target: T4, cysteines in MDA-MB-231 and Ramos cells (Homo sapiens, UniProt Q9NVC6)
T4 sequence (Q9NVC6 1-651): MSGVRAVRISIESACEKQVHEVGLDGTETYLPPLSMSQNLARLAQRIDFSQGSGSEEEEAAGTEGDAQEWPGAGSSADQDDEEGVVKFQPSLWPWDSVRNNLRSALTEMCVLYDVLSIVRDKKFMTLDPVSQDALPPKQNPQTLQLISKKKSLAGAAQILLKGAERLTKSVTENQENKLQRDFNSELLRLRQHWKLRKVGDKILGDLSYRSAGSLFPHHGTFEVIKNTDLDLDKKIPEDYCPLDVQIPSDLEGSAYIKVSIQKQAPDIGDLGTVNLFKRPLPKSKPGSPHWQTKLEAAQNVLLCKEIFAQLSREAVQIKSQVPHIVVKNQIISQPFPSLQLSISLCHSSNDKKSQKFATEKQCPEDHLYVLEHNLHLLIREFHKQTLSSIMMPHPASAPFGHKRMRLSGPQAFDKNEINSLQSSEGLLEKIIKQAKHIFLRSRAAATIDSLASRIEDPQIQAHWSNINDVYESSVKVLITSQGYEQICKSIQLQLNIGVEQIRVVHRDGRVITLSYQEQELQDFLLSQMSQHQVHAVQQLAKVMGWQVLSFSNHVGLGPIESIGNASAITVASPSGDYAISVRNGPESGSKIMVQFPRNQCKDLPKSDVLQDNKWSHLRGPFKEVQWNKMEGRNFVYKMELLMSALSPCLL

[5] = molecular target: T5, cysteines in MDA-MB-231 and Ramos cells (Homo sapiens, UniProt Q9Y3D0); conditions: for isoTOP-ABPP ratio Q9Y3D0_C93: 200 μM, insitu, 231
T5 sequence (Q9Y3D0 1-163): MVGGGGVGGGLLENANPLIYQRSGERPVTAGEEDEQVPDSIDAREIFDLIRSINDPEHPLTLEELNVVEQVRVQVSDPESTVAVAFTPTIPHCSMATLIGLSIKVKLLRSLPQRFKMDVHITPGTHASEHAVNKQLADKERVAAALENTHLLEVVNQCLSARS

In the case of `CC(C)CCOCCNC(=O)CCl` [compound 27], the “isoTOP-ABPP ratio P78417_C32” value ([1]; 200 μM, insitu, 231) is reported as 20.0, the “isoTOP-ABPP ratio Q13155_C23” value ([2]; 200 μM, insitu, 231) is reported as 0.7 and the “isoTOP-ABPP ratio Q13155_C291” value ([2]; 200 μM, insitu, 231) is reported as 0.7. For the same compound, the “isoTOP-ABPP ratio Q96T76_C819” value ([3]; 200 μM, insitu, 231) was 0.5, the “isoTOP-ABPP ratio Q96T76_C848” value ([3]; 200 μM, insitu, 231) was 0.5 and the “isoTOP-ABPP ratio Q9NVC6_C649” value ([4]; 200 μM, insitu, 231) was 1.3. The “isoTOP-ABPP ratio Q9Y3D0_C93” value [5] was 0.7.

In the case of `COc1cc2c(cc1OC)CN(C(=O)CCl)CC2` [compound 8], the “isoTOP-ABPP reactivity P78417_C32 GSTO1” value ([1]; 200 μM, insitu, 231) is reported as 20.0, the “isoTOP-ABPP reactivity Q13155_C23 AIMP2” value ([2]; 200 μM, insitu, 231) is reported as 2.7 and the “isoTOP-ABPP reactivity Q13155_C291 AIMP2” value ([2]; 200 μM, insitu, 231) is reported as 2.4. For the same compound, the “isoTOP-ABPP reactivity Q96T76_C848 MMS19” value ([3]; 200 μM, insitu, 231) was 1.7 and the “isoTOP-ABPP reactivity Q9NVC6_C649 MED17” value ([4]; 200 μM, insitu, 231) was 3.2.

With `COc1ccc(C2CC(c3cccs3)=NN2C(=O)CCl)cc1` (stereo not drawn) [compound 4] the “isoTOP-ABPP reactivity P78417_C32 GSTO1” value ([1]; 100 μM in situ 231) was 19.9, the “isoTOP-ABPP reactivity Q13155_C23 AIMP2” value ([2]; 100 μM in situ 231) was 2.8 and the “isoTOP-ABPP reactivity Q13155_C291 AIMP2” value ([2]; 100 μM in situ 231) was 20.0. For the same compound, the “isoTOP-ABPP reactivity Q96T76_C848 MMS19” value ([3]; 100 μM in situ 231) was 20.0, the “isoTOP-ABPP reactivity Q9NVC6_C649 MED17” value ([4]; 100 μM in situ 231) was 1.7 and the “isoTOP-ABPP reactivity Q9Y3D0_C93 FAM96B” value ([5]; 100 μM in situ 231) was 20.0.

For `O=C(CCl)Nc1cccc2ncccc12` [compound 51], the “isoTOP-ABPP ratio Q13155_C23” value ([2]; 200 μM, insitu, 231) was 1.2, the “isoTOP-ABPP ratio Q13155_C291” value ([2]; 200 μM, insitu, 231) was 1.1 and the “isoTOP-ABPP ratio Q9Y3D0_C93” value [5] was 20.0.

In the case of `COc1ccccc1OCCNC(=O)CCl` [compound 28], the “isoTOP-ABPP ratio P78417_C32” value ([1]; 200 μM, insitu, 231) is reported as 20.0, the “isoTOP-ABPP ratio Q13155_C291” value ([2]; 200 μM, insitu, 231) is reported as 0.9 and the “isoTOP-ABPP ratio Q96T76_C848” value ([3]; 200 μM, insitu, 231) is reported as 0.8. The “isoTOP-ABPP ratio Q9NVC6_C649” value ([4]; 200 μM, insitu, 231) was 1.1 and the “isoTOP-ABPP ratio Q9Y3D0_C93” value [5] was 0.8.

For `O=C(CCl)N1CCN(S(=O)(=O)c2ccccc2F)CC1` [compound 10], the “isoTOP-ABPP ratio P78417_C32” value ([1]; 200 μM, insitu, 231) was 20.0, the “isoTOP-ABPP ratio P78417_C32” value ([1]; 200 μM, insitu, ramos) was 20.0 and the “isoTOP-ABPP ratio Q13155_C23” value ([2]; 200 μM, insitu, 231) was 2.3. The “isoTOP-ABPP ratio Q13155_C291” value ([2]; 200 μM, insitu, 231) was 1.7, the “isoTOP-ABPP ratio Q96T76_C848” value ([3]; 200 μM, insitu, 231) was 2.5 and the “isoTOP-ABPP ratio, cysteine Q96T76_C819” value ([3]; 200 μM, insitu, ramos) was 3.0. For the same compound, the “isoTOP-ABPP ratio Q9NVC6_C649” value ([4]; 200 μM, insitu, 231) was 2.3, the “isoTOP-ABPP ratio Q9NVC6_C649” value ([4]; 200 μM, insitu, ramos) was 2.1 and the “isoTOP-ABPP ratio Q9Y3D0_C93” value [5] was 2.1.

In the case of `CC1CCc2ccccc2N1C(=O)CCl` (stereo not drawn) [compound 45], the “isoTOP-ABPP ratio P78417_C32” value ([1]; 200 μM, insitu, 231) is reported as 1.9, the “isoTOP-ABPP ratio Q13155_C23” value ([2]; 200 μM, insitu, 231) is reported as 4.4 and the “isoTOP-ABPP ratio Q13155_C291” value ([2]; 200 μM, insitu, 231) is reported as 7.3. For the same compound, the “isoTOP-ABPP ratio Q96T76_C819” value ([3]; 200 μM, insitu, 231) was 20.0, the “isoTOP-ABPP ratio Q96T76_C848” value ([3]; 200 μM, insitu, 231) was 20.0 and the “isoTOP-ABPP ratio Q9NVC6_C649” value ([4]; 200 μM, insitu, 231) was 20.0. The “isoTOP-ABPP ratio Q9Y3D0_C93” value [5] was 20.0.

`Cc1ccc(C=C(C#N)C(=O)NCCN2CCOCC2)cc1` [compound 41] was tested, and the “isoTOP-ABPP ratio P78417_C32” value ([1]; 200 μM, insitu, 231) was 0.3, the “isoTOP-ABPP ratio Q13155_C291” value ([2]; 200 μM, insitu, 231) was 0.7 and the “isoTOP-ABPP ratio Q96T76_C819” value ([3]; 200 μM, insitu, 231) was 0.6. For the same compound, the “isoTOP-ABPP ratio Q96T76_C848” value ([3]; 200 μM, insitu, 231) was 0.7, the “isoTOP-ABPP ratio Q9NVC6_C649” value ([4]; 200 μM, insitu, 231) was 0.8 and the “isoTOP-ABPP ratio Q9Y3D0_C93” value [5] was 0.6.
